Measured values from US12195427B2, “MASP-2 inhibitors and methods of use” (priority 2018, dated 2025).
Values belong to the compound of their own block, whether it stands above or below them.

Target: MASP-2 CCP2-SP (Homo sapiens (Human), UniProt O00187)
Test: MASP-2 co-crystallization, X-ray crystallography and structure analysis (H-bonds, van der Waals contacts);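 for Ligand-pharmacophore element distance, pharmacophore element C2: distance from averaged pharmacophore element to bound ligand; missing value means element absent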;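 for Ligand-pharmacophore element distance, pharmacophore element C3: distance from averaged pharmacophore element to bound ligand; missing value means element absent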;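 for Ligand-pharmacophore element distance, pharmacophore element C4: distance from averaged pharmacophore element to bound ligand; missing value means element absent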;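 for Ligand-pharmacophore element distance, pharmacophore element C5: distance from averaged pharmacophore element to bound ligand; missing value means element absent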
Design: van der Waals contact distance, MASP-2 HIS 483 atom CD2 / van der Waals contact distance, MASP-2 HIS 483 atom NE2 / van der Waals contact distance, SER 654 C to compound atom / van der Waals contact distance, SER 654 O to compound atom / van der Waals contact distance, TRP 655 C to compound atom / van der Waals contact distance, MASP-2 GLY 528 atom CA / van der Waals contact distance TRP 655 atom CZ3 / van der Waals contact distance TRP 655 atom N / van der Waals contact distance TRP 655 atom CE3 / van der Waals contact distance GLY 656 atom C / van der Waals contact distance GLY 656 atom CA / van der Waals contact distance GLY 656 atom O / van der Waals contact distance, MASP-2 TYR 607 atom CD1 / van der Waals contact distance, MASP-2 PRO 606 atom O / d(C3,CA1) / d(CA1,N1)2 / d(H4,O1) / d(H4,O2) / d(O1,O2) / d(CA1,O2) / d(CA6,O1) / d(CA6,O2) / d(CA1,C5) / d(O2,H3) / d(N2,C2) / d(CA5,N2) / d(N2,C4) / d(N2,C6) / d(N2,CA3) / d(N2,O3) / d(O4,H2): unit not given beside the values
Conditions: for Ligand-pharmacophore element distance, pharmacophore element C2 / Ligand-pharmacophore element distance, pharmacophore element C3 / Ligand-pharmacophore element distance, pharmacophore element C4 / Ligand-pharmacophore element distance, pharmacophore element C5 / Ligand-pharmacophore element distance, pharmacophore element C6 / Ligand-pharmacophore element distance, pharmacophore element C7 / Ligand-pharmacophore element distance, pharmacophore element CA1 / Ligand-pharmacophore element distance, pharmacophore element CA2 / Ligand-pharmacophore element distance, pharmacophore element CA3 / Ligand-pharmacophore element distance, pharmacophore element CA4 / Ligand-pharmacophore element distance, pharmacophore element CA5 / Ligand-pharmacophore element distance, pharmacophore element CA6: Table A4-1; for Pharmacophore torsion angle a(O1, O2, N2, CA2) / Pharmacophore torsion angle a(O1, O2, N2, CA4): Table A7-2
Excerpt: This example illustrates the preparation of recombinant MASP-2 protein, based on UniProt O00187, human mannan-binding lectin serine protease 2. Expression constructs for human MASP-2 CCP2-SP and CCP2-SP-6HIS were generated for recombinant expression in E. coli cells.
Typically, crystallization hits were obtained by screening against […] 96-well crystallization reagent kits (GRAS6, GRAS2, Hampton Research; MORPHEUS, Molecular Dimensions; Wizard 1&2 Cryo, Rigaku Reagents) and crystal growth was inspected by optical microscopy. Crystals were used directly or further optimized for X-ray diffraction. Crystals were captured with cryogenic loops and dipped into liquid nitrogen directly or cryoprotected with a 20% glycerol in crystallization formulation before flash-cooling in liquid nitrogen.
Thereafter crystals are transferred once or twice for soaking within the crystallization solution containing the MASP-2 inhibitor.
Crystals were diffracted with synchrotron X-rays of […] and X-ray diffraction datasets were collected at beamlines SSRL BL9-2, BL14-1, BL12-2 as well as ALS sector 5 using Dectris Pilatus and Eiger detectors. Structures were determined by molecular replacement using portions of the structure 1Q3X as search models and partially refined with Buster 2.10.2 or Refmac 5.8. […] When multiple ligand poses were observed, for instance arising from multiple molecules in the asymmetric unit or refined dual poses within the same molecule, only one pose was selected and analyzed.
LigPlot+ calls these ‘nonbonded contacts’ or ‘hydrophobic contacts’. Despite the name, there are atom pairings that include possible H-bonds. Thus, in some instances, the Table A2 also contains H-bond interactions.

[1] = Table A5-1 pharmacophore: distance between elements, S2/S1 region
[2] = Table A5-2 pharmacophore distance, S3/S4 region
[3] = Table A7-1, between pharmacophore elements of the bound compound
[4] = between pharmacophore elements of the bound compound
[5] = Table A8-6, nearest protein atom in cell to the left

Chain of MASP-2 CCP2-SP (O00187 445-686): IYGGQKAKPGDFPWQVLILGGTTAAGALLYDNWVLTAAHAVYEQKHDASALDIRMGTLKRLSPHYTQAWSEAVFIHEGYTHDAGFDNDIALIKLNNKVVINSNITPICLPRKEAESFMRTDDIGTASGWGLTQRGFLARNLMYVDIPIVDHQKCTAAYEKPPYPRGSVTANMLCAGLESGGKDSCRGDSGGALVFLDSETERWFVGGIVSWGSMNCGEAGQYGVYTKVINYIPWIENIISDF
Chain of MASP-2 CCP2-SP (O00187 364-432 partner): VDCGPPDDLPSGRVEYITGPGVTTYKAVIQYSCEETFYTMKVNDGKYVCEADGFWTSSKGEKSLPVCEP

Compound: Cc1nc(N)ccc1CNC(=O)C(C)NC(=O)C1CC(c2cccc3ccccc23)CCN1.Cl.Cl (centres unmarked) [1297_1]
Ligand-pharmacophore element distance, pharmacophore element C2: 0.34
Ligand-pharmacophore element distance, pharmacophore element C3: 0.3
Ligand-pharmacophore element distance, pharmacophore element C4: 0
Ligand-pharmacophore element distance, pharmacophore element C5: 0
Ligand-pharmacophore element distance, pharmacophore element C6: 0
Ligand-pharmacophore element distance, pharmacophore element C7: 0
Ligand-pharmacophore element distance, pharmacophore element CA1: 0.39
Ligand-pharmacophore element distance, pharmacophore element CA2: 0.19
Ligand-pharmacophore element distance, pharmacophore element CA3: 0
Ligand-pharmacophore element distance, pharmacophore element CA4: 1.24
Ligand-pharmacophore element distance, pharmacophore element CA5: 0
Ligand-pharmacophore element distance, pharmacophore element CA6: 0
d(C3,CA1) [1]: 2.87
d(CA1,N1)2 [1]: 1.39
d(CA1,O1) [1]: 4.35
d(CA1,O2) [1]: 3.86
d(H4,O1) [1]: 4.31
d(H4,O2) [1]: 3.81
d(O1,O2) [1]: 3.46
d(N2,C2) [2]: 1.44
d(N2,CA2) [2]: 5.68
d(O2,H3) [2]: 4.23
d(O2,N2) [2]: 2.71
a(C3, CA1, O1) (Table A6-1 pharmacophore angle): 149.59
a(CA1, O1, O2) (Table A6-1 pharmacophore angle): 107.14
a(O1, O2, H4) (Table A6-1 pharmacophore angle): 130.08
a(N1, CA1, O1) b) (Table A6-1 pharmacophore angle, Methyl-amino-pyridine compounds): 174.57
a(O1, O2, H3) (Table A6-2 pharmacophore angle): 144.22
a(O1, O2, N2) (Table A6-2 pharmacophore angle): 143.88
a(O2, N2, C2) (Table A6-2 pharmacophore angle): 130.88
a(O2, N2, CA2) (Table A6-2 pharmacophore angle): 156.06
Pharmacophore torsion angle a(C3, CA1, O1, H4) [3]: 30.15
Pharmacophore torsion angle a(H4, O1, O2, H3) [3]: 50.42
Pharmacophore torsion angle a(H4, O1, O2, N2) [3]: 137.09
Pharmacophore torsion angle a(N1, CA1, O1, H4) [3]: 26.85
Pharmacophore torsion angle a(O1, H4, O2, CA1) [3]: −85.98
Pharmacophore torsion angle a(O1, O2, N2, C2) [3]: 117.40
Pharmacophore torsion angle a(O1, O2, N2, CA2) [4]: 131.38
Pharmacophore torsion angle a(O1, O2, N2, CA4) [4]: 110.58

H-bond distance to MASP-2 ASP 627 atom OD2 (Table A1 (H-Bonds), ASP 627 OD2): 3.09
H-bond distance to MASP-2 CYS 660 atom SG (Table A1 (H-Bonds), CYS 660 SG): 3.16
H-bond distance to MASP-2 GLY 656 atom N (Table A1 (H-Bonds), GLY 656 N): 3.24
H-bond distance to MASP-2 SER 654 atom O (Table A1 (H-Bonds), SER 654 O): 2.7
H-bond distance to MASP-2 SER 657 atom O (Table A1 (H-Bonds), SER 657 O): 2.75
H-bond distance to MASP-2 SER 657 atom OG (Table A1 (H-Bonds), SER 657 OG): 3.19
van der Waals contact distance, MASP-2 ASP 526 atom C (Table A2-1): 3.29
van der Waals contact distance, MASP-2 ASP 526 atom CA (Table A2-1): 3.87
van der Waals contact distance, MASP-2 HIS 483 atom CD2 (Table A2-1): 3.81
van der Waals contact distance, MASP-2 GLY 528 atom N (Table A2-2): 3.4
van der Waals contact distance, MASP-2 PHE 529 atom CE1 (Table A2-3): 3.68
van der Waals contact distance, SER 654 C to compound atom (Table A2-11): 3.68
Ligand-pharmacophore element distance, pharmacophore element C2: 0
Ligand-pharmacophore element distance, pharmacophore element C3: 0
Ligand-pharmacophore element distance, pharmacophore element C4: 3.8
Ligand-pharmacophore element distance, pharmacophore element C5: 0
Ligand-pharmacophore element distance, pharmacophore element C6: 0
Ligand-pharmacophore element distance, pharmacophore element C7: 0
Ligand-pharmacophore element distance, pharmacophore element CA1: 0.35
Ligand-pharmacophore element distance, pharmacophore element CA2: 0
Ligand-pharmacophore element distance, pharmacophore element CA3: 0
Ligand-pharmacophore element distance, pharmacophore element CA4: 1.47
Ligand-pharmacophore element distance, pharmacophore element CA5: 0
Ligand-pharmacophore element distance, pharmacophore element CA6: 4.96
d(CA1,N1) [1]: 3.57
d(CA1,O1) [1]: 5.15
d(CA1,O2) [1]: 9.42
d(CA6,O1) [1]: 7.04
d(CA6,O2) [1]: 8.45
d(H4,O1) [1]: 5.59
d(H4,O2) [1]: 8.32
d(O1,O2) [1]: 8.70
d(N2,C4) [2]: 7.94
d(O2,H3) [2]: 5.29
d(O2,N2) [2]: 4.42
a(CA1, O1, O2) (Table A6-1 pharmacophore angle): 147.27
a(O1, CA6, O2) (Table A6-1 pharmacophore angle): 131.55
a(O1, O2, H4) (Table A6-1 pharmacophore angle): 105.44
A(N1, CA1, O1) a) (Table A6-1 pharmacophore angle, all compounds with protonatable center N1 except Methyl-amino-pyridine): 168.87
a(O1, O2, H3) (Table A6-2 pharmacophore angle): 54.88
a(O1, O2, N2) (Table A6-2 pharmacophore angle): 62.73
a(O2, N2, C4) (Table A6-2 pharmacophore angle): 154.82
a(O2, N2, C4) 2 (Table A6-2 pharmacophore angle): 49.80
Pharmacophore torsion angle a(CA6, O1, H4, O2) [3]: 55.30
Pharmacophore torsion angle a(H4, O1, O2, H3) [3]: 105.58
Pharmacophore torsion angle a(H4, O1, O2, N2) [3]: 125.02
Pharmacophore torsion angle a(N1, CA1, O2, H4) [3]: −109.82
Pharmacophore torsion angle a(O1, H4, O2, CA1) [3]: −48.11
Pharmacophore torsion angle a(O1, O2, N2, CA4) [4]: 155.91
Pharmacophore protein distance to MET_658 (first MET_658 column) (Table A8-6, 6th residue column, nearest protein atom in cell to the left): 2.55
Pharmacophore protein distance to MET_658 (second MET_658 column) (Table A8-6, 9th residue column, nearest protein atom in cell to the left): 3.25
Pharmacophore protein distance to GLY_528 [5]: 3.92
Pharmacophore protein distance to PHE_529 [5]: 2.93
Pharmacophore protein distance to PRO_608 [5]: 4.39
Pharmacophore protein distance to SER_611 [5]: 2.96
Pharmacophore protein distance to TRP_655 (Table A8-6, pharmacophore elements C6, CA3, O3, H1, nearest protein atom in cell to the left): 3.27
Compound: C[C@H](NC(=O)[C@@H](CCc1ccccc1)NCc1ccc(N2CCOCC2)cc1)C(=O)NCc1ccc(C(=N)N)cc1 [compound 1149]

Compound: C[C@H](NC(=O)[C@H]1C[C@@H](c2ccccc2)CCN1)C(=O)NCc1cc(Cl)ccc1O.Cl [1078_8]
Ligand-pharmacophore element distance, pharmacophore element C2: 0.85
Ligand-pharmacophore element distance, pharmacophore element C3: 0
Ligand-pharmacophore element distance, pharmacophore element C4: 0
Ligand-pharmacophore element distance, pharmacophore element C5: 0.78
Ligand-pharmacophore element distance, pharmacophore element C6: 0
Ligand-pharmacophore element distance, pharmacophore element C7: 0
Ligand-pharmacophore element distance, pharmacophore element CA1: 1.67
Ligand-pharmacophore element distance, pharmacophore element CA2: 0.92
Ligand-pharmacophore element distance, pharmacophore element CA3: 0
Ligand-pharmacophore element distance, pharmacophore element CA4: 0
Ligand-pharmacophore element distance, pharmacophore element CA5: 0
Ligand-pharmacophore element distance, pharmacophore element CA6: 0
d(CA1,C5) [1]: 3.10
d(CA1,O1) [1]: 4.33
d(CA1,O2) [1]: 4.59
d(CA1,O4) [1]: 2.75
d(H4,O1) [1]: 2.28
d(H4,O2) [1]: 2.53
d(O1,O2) [1]: 2.73
d(O4,H2) [1]: 0.98
d(N2,C2) [2]: 1.44
d(N2,CA2) [2]: 5.66
d(O2,H3) [2]: 2.69
d(O2,N2) [2]: 2.85
a(C5, CA1, O1) (Table A6-1 pharmacophore angle): 159.05
a(CA1, O1, O2) (Table A6-1 pharmacophore angle): 112.99
a(CA1, O4, H2) (Table A6-1 pharmacophore angle): 125.48
a(O1, CA1, O4) (Table A6-1 pharmacophore angle): 73.28
a(O1, O2, H4) (Table A6-1 pharmacophore angle): 111.09
a(O1, O2, H3) (Table A6-2 pharmacophore angle): 140.66
a(O1, O2, N2) (Table A6-2 pharmacophore angle): 145.13
a(O2, N2, C2) (Table A6-2 pharmacophore angle): 125.44
a(O2, N2, CA2) (Table A6-2 pharmacophore angle): 153.81
Pharmacophore torsion angle a(C5, CA1, O1, H4) [3]: 5.11
Pharmacophore torsion angle a(H4, O1, O2, H3) [3]: −134.33
Pharmacophore torsion angle a(H4, O1, O2, N2) [3]: −122.87
Pharmacophore torsion angle a(O1, H4, O2, CA1) [3]: −58.50
Pharmacophore torsion angle a(O1, O2, N2, C2) [3]: 135.84
Pharmacophore torsion angle a(O1, O2, N2, CA2) [4]: 143.43
